Test results: patent publication US12173018B2, “Penicillin-binding protein inhibitors” (priority 2018, dated 2024)
In brackets after ≈: the same amount, converted by molar mass.

Key:
E. coli ATCC 25922 = assay: Broth microdilution MIC, E. coli ATCC 25922; assay type: cell-based; conditions: Escherichia coli, ATCC25922; E. coli ATCC 25922, broth microdilution; read-out: MIC E. coli 25922
How it was run: (§1)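 Following CLSI guidance, growth inhibition is measured in Mueller-Hinton broth with divalent cations. Inoculum 5×10^5 CFU/mL; incubation 16-20 hours, 37° C; endpoint is visual absence of growth.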

E. coli AG100 = assay: Broth microdilution MIC, E. coli AG100 (wild-type parent); assay type: cell-based; conditions: Escherichia coli; wild-type parent E. coli AG100, broth microdilution; read-out: MIC E. coli AG100
How it was run: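 Starting inoculum of 5×10^5 CFU/mL, from colonies grown 3-5 h in Mueller-Hinton broth with divalent cations, added to two-fold compound dilution series.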

E. coli 901C = assay: microbe, parasite or virus in culture; assay type: cell-based; conditions: Escherichia coli; hyper-permeable E. coli 901C, broth microdilution; read-out: MIC E. coli 901C
How it was run: as §1

E. coli AG100A = assay: microbe, parasite or virus in culture; assay type: cell-based; conditions: Escherichia coli, read-out: MIC E. coli AG100A
How it was run: as §1

E. coli D22 = assay: microbe, parasite or virus in culture; assay type: cell-based; conditions: Escherichia coli; hyper-permeable E. coli D22, broth microdilution; read-out: MIC E. coli D22
How it was run: as §1

K. pneumoniae SI-117 = assay: microbe, parasite or virus in culture; assay type: cell-based; conditions: Klebsiella pneumoniae, SI117, read-out: MIC K. pneumoniae SI-117
How it was run: as §1

K. pneumoniae UMM = assay: microbe, parasite or virus in culture; assay type: cell-based; conditions: Klebsiella pneumoniae; K. pneumoniae UMM producing SHV-5 and KPC-2; read-out: MIC K. pneumoniae UMM
How it was run: as §1

K. pneumoniae 848844 = assay: microbe, parasite or virus in culture; assay type: cell-based, Klebsiella pneumoniae; conditions: Klebsiella pneumoniae; K. pneumoniae 848844 producing SHV-11 and KPC-2; read-out: MIC K. pneumoniae 848844
How it was run: as §1

[1] = system: N. gonorrhoeae ATCC 49226; assay: Liquid broth MIC, N. gonorrhoeae ATCC 49226; assay type: cell-based; conditions: Neisseria gonorrhoeae, ATCC49226; N. gonorrhoeae ATCC 49226, liquid broth; read-out: Minimum Inhibitory Concentration, N. gonorrhoeae ATCC 49226
How it was run: (§2)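 Colonies sub-cultured 24 h earlier on supplemented GC agar are suspended in broth, adjusted by optical density at 600 nm and added to 2-fold serial compound dilutions at 5×10^5 CFU/mL. Plates incubate 40-42 hours at 36° C with 5% CO2 before visual MIC reading.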

N. gonorrhoeae FA1090 = assay: Liquid broth MIC, N. gonorrhoeae FA1090; assay type: cell-based; conditions: Neisseria gonorrhoeae; N. gonorrhoeae FA1090, liquid broth; read-out: Minimum Inhibitory Concentration, N. gonorrhoeae FA1090
How it was run: as §2

N. gonorrhoeae WHO F = assay: Liquid broth MIC, N. gonorrhoeae WHO F; assay type: cell-based; conditions: Neisseria gonorrhoeae; N. gonorrhoeae WHO F, liquid broth; read-out: Minimum Inhibitory Concentration, N. gonorrhoeae WHO F
How it was run: as §2

N. gonorrhoeae FA19 = assay: Liquid broth MIC, N. gonorrhoeae FA19; assay type: cell-based; conditions: Neisseria gonorrhoeae; N. gonorrhoeae FA19, liquid broth; read-out: Minimum Inhibitory Concentration, N. gonorrhoeae FA19
How it was run: as §2

SMILES: CCN1CCN(C(=O)NC(C(=O)N[C@H]2Cc3cccc(C(=O)O)c3OB2O)c2nc(N)sc2F)C(=O)C1=O (stereo partly drawn) [Example 205, (3R)-3-(2-(2-amino-5-fluorothiazol-4-yl)-2-(4-ethyl-2,3-dioxopiperazine-1-carboxamido)acetamido)-2-hydroxy-3,4-dihydro-2H-benzo[e][1,2]oxaborinine-8-carboxylic acid]
- MIC (E. coli ATCC 25922): 2 to 4 µg/mL
- MIC (E. coli AG100): 8 to 16 µg/mL
- MIC (E. coli 901C): < 0.25 µg/mL
- MIC (E. coli AG100A): 0.5 to 1 µg/mL
- MIC (E. coli D22): 0.5 to 1 µg/mL
- MIC (K. pneumoniae SI-117): 32 to 64 µg/mL
- MIC (K. pneumoniae UMM): > 128 µg/mL
- MIC (K. pneumoniae 848844): 32 to 64 µg/mL
- MIC [1]: < 0.125 µg/mL
- MIC (N. gonorrhoeae FA1090): < 0.125 µg/mL
- MIC (N. gonorrhoeae WHO F): < 0.125 µg/mL
- MIC (N. gonorrhoeae FA19): < 0.125 µg/mL

SMILES: CCN1CCN(C(=O)N[C@H](C(=O)N[C@H]2Cc3ccc(F)c(C(=O)O)c3OB2O)c2ccc(O)c(O)c2Cl)C(=O)C1=O [Example 188, (R)-3-((S)-2-(2-chloro-3,4-dihydroxyphenyl)-2-(4-ethyl-2,3-dioxopiperazine-1-carboxamido)acetamido)-7-fluoro-2-hydroxy-3,4-dihydro-2H-benzo[e][1,2]oxaborinine-8-carboxylic acid]
- MIC (E. coli ATCC 25922): 32 to 64 µg/mL
- MIC (E. coli AG100): 8 to 16 µg/mL
- MIC (E. coli 901C): 2 to 4 µg/mL
- MIC (E. coli AG100A): 8 to 16 µg/mL
- MIC (E. coli D22): 8 to 16 µg/mL
- MIC (K. pneumoniae SI-117): 32 to 64 µg/mL
- MIC (K. pneumoniae UMM): > 128 µg/mL
- MIC (K. pneumoniae 848844): 8 to 16 µg/mL
- MIC [1]: 16 to 32 µg/mL (≈ 27 to 54 µM)
- MIC (N. gonorrhoeae FA1090): 4 to 8 µg/mL (≈ 6.75 to 13.5 µM)
- MIC (N. gonorrhoeae WHO F): 4 to 8 µg/mL (≈ 6.75 to 13.5 µM)
- MIC (N. gonorrhoeae FA19): 16 to 32 µg/mL (≈ 27 to 54 µM)

SMILES: CC[C@H]1CN(CC)C(=O)C(=O)N1C(=O)NC(C(=O)N[C@H]1Cc2cccc(C(=O)O)c2OB1O)c1ncc(O)cc1F (stereo partly drawn) [Example 218, (3R)-3-(2-((S)-4,6-diethyl-2,3-dioxopiperazine-1-carboxamido)-2-(3-fluoro-5-hydroxypyridin-2-yl)acetamido)-2-hydroxy-3,4-dihydro-2H-benzo[e][1,2]oxaborinine-8-carboxylic acid]
- MIC (E. coli ATCC 25922): 32 to 64 µg/mL
- MIC (E. coli AG100): 32 to 64 µg/mL
- MIC (E. coli 901C): < 0.25 µg/mL
- MIC (E. coli AG100A): 2 to 4 µg/mL
- MIC (E. coli D22): 2 to 4 µg/mL
- MIC (K. pneumoniae SI-117): > 128 µg/mL
- MIC (K. pneumoniae UMM): 32 to 64 µg/mL
- MIC (K. pneumoniae 848844): > 128 µg/mL
- MIC [1]: 16 to 32 µg/mL (≈ 28 to 56 µM)
- MIC (N. gonorrhoeae FA1090): 0.25 to 0.5 µg/mL (≈ 0.438 to 0.875 µM)
- MIC (N. gonorrhoeae WHO F): 0.25 to 0.5 µg/mL (≈ 0.438 to 0.875 µM)
- MIC (N. gonorrhoeae FA19): 16 to 32 µg/mL (≈ 28 to 56 µM)

SMILES: CCN1CCN(C(=O)NC(C(=O)N[C@H]2Cc3cccc(C(=O)O)c3OB2O)c2ccc(S(N)(=O)=O)cc2)C(=O)C1=O (stereo partly drawn) [Example 102, (3R)-3-(2-(4-ethyl-2,3-dioxopiperazine-1-carboxamido)-2-(4-sulfamoylphenyl)acetamido)-2-hydroxy-3,4-dihydro-2H-benzo[e][1,2]oxaborinine-8-carboxylic acid]
- MIC (E. coli ATCC 25922): 32 to 64 µg/mL
- MIC (E. coli AG100): 8 to 16 µg/mL
- MIC (E. coli 901C): < 0.25 µg/mL
- MIC (E. coli AG100A): 2 to 4 µg/mL
- MIC (K. pneumoniae UMM): 32 to 64 µg/mL
- MIC [1]: 1 to 2 µg/mL (≈ 1.7 to 3.4 µM)
- MIC (N. gonorrhoeae FA1090): < 0.125 µg/mL
- MIC (N. gonorrhoeae WHO F): < 0.125 µg/mL
- MIC (N. gonorrhoeae FA19): 1 to 2 µg/mL (≈ 1.7 to 3.4 µM)

SMILES: CCN1CCN(C(=O)NC(C(=O)N[C@H]2Cc3cccc(C(=O)O)c3OB2O)c2ccc(O)c(O)c2Cl)C(=O)C1=O (stereo partly drawn) [Example 37, (3R)-3-(2-(2-chloro-3,4-dihydroxyphenyl)-2-(4-ethyl-2,3-dioxopiperazine-1-carboxamido)acetamido)-2-hydroxy-3,4-dihydro-2H-benzo[e][1,2]oxaborinine-8-carboxylic acid]
- MIC (E. coli ATCC 25922): 32 to 64 µg/mL
- MIC (E. coli AG100): 32 to 64 µg/mL
- MIC (E. coli 901C): 0.5 to 1 µg/mL
- MIC (E. coli AG100A): 2 to 4 µg/mL
- MIC (K. pneumoniae UMM): 8 to 16 µg/mL
- MIC [1]: 4 to 8 µg/mL (≈ 6.96 to 13.9 µM)
- MIC (N. gonorrhoeae FA1090): 1 to 2 µg/mL (≈ 1.74 to 3.48 µM)
- MIC (N. gonorrhoeae WHO F): 1 to 2 µg/mL (≈ 1.74 to 3.48 µM)
- MIC (N. gonorrhoeae FA19): 4 to 8 µg/mL (≈ 6.96 to 13.9 µM)

SMILES: CCN1CCN(C(=O)NC(C(=O)N[C@H]2Cc3cccc(C(=O)O)c3OB2O)c2ccc(O)cc2F)C(=O)C1=O (stereo partly drawn) [Example 87, (3R)-3-(2-(4-ethyl-2,3-dioxopiperazine-1-carboxamido)-2-(2-fluoro-4-hydroxyphenyl)acetamido)-2-hydroxy-3,4-dihydro-2H-benzo[e][1,2]oxaborinine-8-carboxylic acid]
- MIC [1]: 1 to 2 µg/mL (≈ 1.84 to 3.69 µM)
- MIC (N. gonorrhoeae FA1090): < 0.125 µg/mL
- MIC (N. gonorrhoeae WHO F): < 0.125 µg/mL
- MIC (N. gonorrhoeae FA19): 4 to 8 µg/mL (≈ 7.38 to 14.8 µM)
